Patent US20100092479A1, “Compositions and methods for treatment of viral diseases” (CombinatoRx (Singapore) Pte. Ltd., priority 2008, published 2010)
Structures can show the parent of a compound that is named as a salt. Where two headings read alike, the source gives them in different places.

How the values were obtained:
[1] = system: Huh7 cells expressing a subgenomic RNA replicon of Con1 (genotype 1b); experiment: HCV replicon assay (luciferase, SteadyLite), Example 1; assay type: cell-based; settings: single agent; for IC50: read-out: IC50 (concentration required to achieve 50% inhibition of viral replication); for Emax: read-out: Max Eff (maximum effect, inhibition of viral replication)
Procedure: The HCV replicon assay enables screening of compounds with antiviral activity against HCV viral RNA replication. Huh7 cells expressing a subgenomic RNA replicon of Con1 (genotype 1b) sequence origin and expressing the reporter enzyme luciferase were obtained from ReBLikon, GmBH. In order to perform the assay, replicon cells were seeded on a 384-well plate at 4,000 cells/well in a total volume of 30 μL well. The plated cells were incubated at 37° C., 5% CO2. Pre-diluted compounds at a 10× concentration were added to each well to achieve the desired final concentration. Plates were centrifuged at 900×g, 1 minute following the addition of compounds. Cells were incubated an additional 48 hours or 72 hours at 37° C., 5% CO2. Plates were removed from the incubator 30 minutes to 1 hour prior to the addition of 25 μL/well of SteadyLite luciferase assay reagent from Perkin Elmer in order to equilibrate plates to room temperature. Following the addition of SteadyLite reagent, cells were allowed to incubate for 10 minutes prior to collecting data with a luminometer. Antiviral activity was quantified by the inhibition of luciferase activity.
For screens involving a combination of compounds, a synergy score was calculated by the formula S=log fX log fYΣIdata(Idata−/ILoewe), summed over all non-single-agent concentration pairs, and where log fX,Y are the natural logarithm of the dilution factors used for each single agent. This effectively calculates a volume between the measured and Loewe additive response surfaces, weighted towards high inhibition and corrected for varying dilution factors. […] In general, the magnitude of the synergy score indicates the strength of the synergistic interaction.

Huh7 parental cell line = experiment: Host proliferation counterscreen measuring cellular ATP levels (ATPLite); assay type: cell-based, human
Procedure: (§1) The human hepatoma cell line Huh-7^1 and Huh-luc/neo-ET cells (ReBLikon, GmbH) were maintained in Dulbecco's modified Eagle's medium (DMEM; Gibco Invitrogen) supplemented with 10% Fetal Bovine Serum (FBS, Gibco Invitrogen),1% Penicillin/Streptomycin (Gibco Invitrogen), 1% Gluta MAX-1 (Gibco Invitrogen) and 1% Non-Essential Amino Acids Solution (Gibco Invitrogen) at 37° C., 5% CO2. Huh-luc/neo-ET cells were grown in medium additionally supplemented with 250 ug/ml Geneticin (G418, Gibco Invitrogen). These cells stably express an HCV genotype 1b subgenomic replicon encoding firefly (Photinus pyralis) luciferase, the coding sequence for ubiquitin and neomycin phosphotransferase downstream of the HCV IRES and upstream of an EMCV IRES which mediates translation of downstream viral nonstructural proteins NS3 to NS5B^2. For all experimental procedures Huh-luc/neo-ET and Huh-7 parental cells were seeded in DMEM without phenol red in the absence of G418 and Penicillin/Streptomycin (screening medium).
(§2) Cells were seeded in 30 μl of screening medium at 4000 cells/well on white (Huh-luc/neo-ET cells for viral inhibition assay) or black (Huh7 cells for proliferation inhibition assay) 384-well assay plates (Matrix) and incubated overnight for approximately 20 hours. Using a MiniTrak™ Robotic Liquid Handling System (Perkin-Elmer) 1 μl of compound stock solutions (1000× concentration in DMSO unless otherwise mentioned) in an X (2-fold dilutions of compound horizontally arrayed) or Y (2-fold dilutions of compound vertically arrayed) format was transferred from master plates into 384-well clear bottom plates containing 100 μl screening medium (dilution plates) and mixed thoroughly. From each X and Y dilution plate, 3.3 μl was subsequently transferred to the 384-well assay plates for a final compound dilution of 1:1000 generating a 9×9 (81-point) dose response matrix. The cells were then incubated for 48 hours prior to measuring luciferase activity (viral inhibition) or ATP depletion (proliferation inhibition). 25 μl of SteadyLite (Perkin-Elmer) was added to the white 384-well assay plates and 15 μl of ATPLite (Perkin-Elmer) was added to the black 384-well plates which were subsequently incubated at least 5 minutes before measuring the luminescent signal. All luminescence measurements were assayed for 0.1 sec per well with an EnVision™ Xcite multilabel automatic plate reader with Enhanced Luminescence (Perkin-Elmer) and expressed as the number of relative light units (RLU) detected. Compounds were assayed in duplicate 9×9 dose matrices on each plate and DMSO-only control wells were included as negative untreated controls.
(§3) The resulting impact on viral replication, as measured by replicon luciferase activity, is shown as dose response curves in FIG. 1a. A host proliferation counterscreen measuring cellular ATP levels was assessed in parallel using the Huh7 parental cell line and the data were used to evaluate the selectivity of each probe. All of the compounds tested produced either increases (proviral) or decreases (antiviral) in replicon replication.

[2] = system: HCV genotype 1b subgenomic replicon; experiment: cHTS luciferase assay (viral inhibition) in Huh-luc/neo-ET cells, Experiment 2; assay type: cell-based; settings: single agent; for IC50: Hepatitis C virus, Huh-luc/neo-ET, replicon luciferase activity, 48 hours, read-out: IC50, HCV replication
Procedure: as §1, §2
Dose matrices were assembled from replicate combination blocks on experimental 384-well pates. Raw phenotype measurements T from each treated well were converted to normalized measures of inhibitory activity a=−log10(TN) or fractional inhibition I=1−T/V relative to the median V of 20 vehicle-treated wells arranged around the plate. After normalization, we calculated average activity values between replicate measurements at the same treatment doses, along with σ1σ1, the accompanying standard error estimates. Single agent responses were tested at eleven serially-diluted doses and combination data as 9×9 dose matrices each testing all pairs of 8 serially-diluted single agent concentrations along with their single agent doses as a control.
as §3

HMGCR = HMGCR protein expression by western analysis in Huh7 cells; assay type: cell-based, human; settings: Huh7 cells treated 16 hrs, GAPDH control
Procedure: For protein expression analysis, Huh-luc/neo-ET cells were seeded in 4 ml of medium at 250,000 cells per well on 6-well plates and allowed to adhere for 6-8 hours. Stock solutions of compound were added at a 1:1000 dilution and cells were incubated in the presence of compound over 96 hours. Medium and compounds were refreshed once after an initial incubation of 48 hours. Cells were washed in phosphate-buffered saline (PBS, Invitrogen-Gibco) and lysed by the addition of 1× RIPA lysis buffer (0.5 M Tris-HCl, pH 7.4/1.5 M NaCl/2.5% deoxycholic acid/10% NP-40/10 mM EDTA, purchased from Upstate) containing Complete, Mini Protease inhibitor cocktail and PhosSTOP phosphatase inhibitor cocktail tablets (Roche) according to the manufacturer's recommendations. Cell lysates were rocked for 30 minutes at 4° C. and centrifuged at 10,000×g for 10 minutes at 4° C. The protein concentration of each extract was determined by BCA protein assay (Pierce) according to the manufacturer's protocol. […]
To determine the effects of our chemical inhibitors on HMGCR expression, we treated Huh7 cells with the listed concentrations of each chemical for 16 hrs (FIG. 4b). Cell lysates were extracted according to the methods and HMGCR protein expression was analyzed by SDS-PAGE separation and western staining with antibodies specific for HMGCR and GAPDH.

HCV RNA = HCV RNA copy number by RT-qPCR in Huh-luc/neo-ET cells; assay type: cell-based; settings: 72 hr treatment
Procedure: Measurement of HCV RNA levels in response to drug were carried out by first seeding Huh-luc/neo-ET cells in 100 μl of medium at 7,500 cells per well for 72 hour drug treatments and allowed to adhere overnight for approximately 20 hours. Compounds were added at a 1:1000 dilution in duplicate and added to cells in 3 separate experiments. Total RNA was harvested using an RNeasy 96-well kit (Qiagen) according to the manufacturer's protocol and quantified using the Quant-iT™ RiboGreen® RNA Reagent (Invitrogen). Purified RNA (4 μl) was added to TaqMan reactions containing 10 μl of QuantiTect Probe RT-PCR Master Mix (Qiagen) and 0.2 μL, of QuantiTect RT Mix. […] All 20 μl reactions were assayed in an Eppy Twin-Tec skirted PCR plate (Eppendorf) and subjected to quantitative one-step RT-PCR with an Eppendorf Realplex4 qPCR machine (Eppendorf) using the following program: 50° C. for 30 min, 95° C. for 15 min, and 40 cycles of 95° C. for 15 s followed by 60° C. for 1 min 15 s. Absolute quantification of HCV RNA copy number was determined by comparing PCR signals to a standard curve generated from dilutions of a 160 by PCR-amplified fragment of the 5′NTR of HCV. […] All qPCR samples quantified by comparison to the standard curve were subsequently normalized to total RNA per sample to account for variations in sample purification and preparation steps. […]

[3] = single agent, Huh7 parental cells

Row | Compound | IC50 ([1]; Hepatitis C virus, Huh-7) [µM] | Emax ([1]; Hepatitis C virus, Huh-7) [%] | also measured
1 | Clc1ccccc1CNC[C@H]1CC[C@H](CNCc2ccccc2Cl)CC1 [AY-9944] | 2.52 | 85 | 
2 | CCC(C)(C)c1ccc(CC(C)CN2C[C@@H](C)O[C@@H](C)C2)cc1 (stereo partly drawn) [Amorolfine hydrochloride, Amorolfine] | 7.66 | 62 | 
3 | O=C(c1ccc(Cl)cc1)N1CCC(=Cc2ccc(C3=NCCO3)cc2)CC1 [BIBB-515] |  | 46 | 
4 | CCN(CC)CCOc1ccc(/C(=C(\Cl)c2ccccc2)c2ccccc2)cc1 [Clomiphene citrate, Clomiphene] |  | 86 | 
5 | CC(C)CCCC(C)[C@H]1CC(=O)C2=C3CC[C@H]4C[C@@H](O)CC[C@]4(C)C3CC[C@@]21C (stereo partly drawn) [Colestolone] | 1.62 | 79 | impact on host cell ATP levels (Huh7 parental cell line; [3]): marginal impact; HCV replication (replicon luciferase activity), result in words [2]: inhibited HCV replication
6 | CC(C)n1c(/C=C/C(O)CC(O)CC(=O)O)c(-c2ccc(F)cc2)c2ccccc21 (stereo not drawn) [Fluvastatin] | 15.8 | 65 | 
7 | COC(=O)[C@H](CC(C)C)NC(=O)c1ccc(NC[C@@H](N)CS)cc1-c1ccccc1 [GGTI-286] | 3.7 | 79 | 
8 | O=C([O-])C[C@H](O)C[C@H](O)/C=C/c1c(C2CC2)nc2ccccc2c1-c1ccc(F)cc1.O=C([O-])C[C@H](O)C[C@H](O)/C=C/c1c(C2CC2)nc2ccccc2c1-c1ccc(F)cc1.[Ca+2] [Itavastatin, calcium salt, Itavastatin] |  |  | Max Eff (maximum effect, inhibition of viral replication) [1]: 92; IC50 [1]: 2.3 µM
9 | CC[C@H](C)C(=O)O[C@H]1C[C@@H](C)C=C2C=C[C@H](C)[C@H](CC[C@@H]3C[C@@H](O)CC(=O)O3)[C@H]21 [Lovastatin] | 1.64 | 102 | 
10 | CC[C@H](C)C(=O)O[C@H]1CCC=C2C=C[C@H](C)[C@H](CC[C@@H]3C[C@@H](O)CC(=O)O3)[C@H]21 [Mevastatin] | 0.6 | 101 | 
11 | CCCCCCC(=O)CCCCCC/C=C/C[C@@H](O)[C@H](O)[C@@](N)(CO)C(=O)O [Myriocin] |  | 33 | 
12 | C=CCN(C)CCCCCCOc1ccc(C(=O)c2ccc(Br)cc2)c(F)c1 [Ro 48-8071] | 0.06 | 66 | impact on host cell ATP levels (Huh7 parental cell line; [3]): marginal impact; IC50 [2]: 0.0683 µM; HCV replication (replicon luciferase activity), result in words [2]: inhibited HCV replication; HMGCR protein expression (HMGCR): apparent overexpression
13 | CCOP(=O)(OCC)C(=Cc1cc(C(C)(C)C)c(O)c(C(C)(C)C)c1)P(=O)(OCC)OCC [SR 12813] |  |  | Max Eff (maximum effect, inhibition of viral replication) [1]: 47
14 | CCC(C)(C)C(=O)O[C@H]1C[C@@H](C)C=C2C=C[C@H](C)[C@H](CC[C@@H]3C[C@@H](O)CC(=O)O3)[C@H]21 [Simvastatin] | 14 | 71 | 
15 | C=C(CC[C@]12O[C@H](C(=O)O)[C@@](O)(C(=O)O)[C@](C(=O)O)(O1)[C@H](OC(=O)/C=C/[C@@H](C)C[C@@H](C)CC)[C@H]2O)[C@@H](OC(C)=O)[C@H](C)Cc1ccccc1 [Squalestatin] |  |  | effect on HCV RNA replication (viral RNA copy number normalized to total RNA) (HCV RNA): proviral effects
16 | CCCCCCCCCCCCCCOc1ccc(C(=O)O)o1 [TOFA, 5-(tetradecyloxy)-2-furancarboxylic acid] | 6.25 | 95 | 
17 | CCN(CC)CCOc1ccc(C(O)(Cc2ccc(Cl)cc2)c2ccc(C)cc2)cc1 (stereo not drawn) [Triparanol] | 1.55 | 87 | 
18 | CCN(CC)CCO[C@H]1CC[C@@]2(C)C(=CC[C@@H]3[C@@H]2CC[C@]2(C)C(=O)CC[C@@H]32)C1 [U18666A] |  |  | impact on host cell ATP levels (Huh7 parental cell line; [3]): marginal impact; IC50 [2]: 0.0194 µM; HCV replication (replicon luciferase activity), result in words [2]: inhibited HCV replication; HMGCR protein expression (HMGCR): apparent overexpression
19 | CCC(C)(C)c1ccc(CC(C)CN2C[C@@H](C)O[C@@H](C)C2)cc1 (stereo partly drawn) [amorolfine, Amorolfine] |  |  | impact on host cell ATP levels (Huh7 parental cell line; [3]): marginal impact; HCV replication (replicon luciferase activity), result in words [2]: inhibited HCV replication
20 | C[C@@H](Cc1ccc(C(C)(C)C)cc1)CN1C[C@@H](C)O[C@@H](C)C1 [fenpropimorph, Fenpropimorph] |  |  | impact on host cell ATP levels (Huh7 parental cell line): marginal impact; HCV replication (replicon luciferase activity), result in words [2]: inhibited HCV replication
21 | Terconazole |  |  | Max Eff (maximum effect, inhibition of viral replication) [1]: 95; IC50 [1]: 1.66 µM
